# Source: US12427137B2, “Method for reducing methane production in animal stomach” (CHINA AGRICULTURAL UNIVERSITY, priority 2022, dated 2025)
# Marks after values point to notes of the source that are not given here.
# Key:
# [1] = Melatonin concentration in rumen fluids of cows fed with melatonin; type: in vivo; settings: cows fed 15 mg/kg/day, days 7 to 21, FIG. 2
# Protocol: (§1) In vivo experiment: twenty lactating cows with similar ages and body conditions were selected and randomly divided into two groups, a control group (fed with digestible paper only) and a melatonin-fed group (fed with melatonin wrapped in digestible paper, 15 mg/kg/day). Each group had 10 cows. The cows were fed every morning after milking. The treatment lasted for 21 days. The rumen fluids were collected with rumen collection tubes before the morning feeding on days 0, 7, 14 and 21, respectively. The concentrations of melatonin in the rumen fluids were measured by liquid chromatography tandem mass spectrometry (LC-MS/MS). The breathing gas of the cows was collected by a breathing gas collection system to detect the methane content therein. Meanwhile, the information (e.g., the health condition and milk quality) of the cows was also recorded to monitor the influence of the feeding experiment on the dairy production.
# Twenty lactating cows with similar ages and body conditions were selected and randomly divided into two groups, a control group (CON, fed with digestible paper only) and a melatonin-fed group (MT, fed with melatonin wrapped in digestible paper). Each group had 10 cows. […] And the melatonin contents in the rumen fluids were determined by […]. […]
# [2] = system: rumen microbial flora; experiment: Microorganism compositions of the in vitro rumen fermentation system (Alpha diversity, differential species analysis); type: cell-based, cows
# Protocol: Alpha diversity can reflect the abundance and diversity of microbial flora. […] In order to clarify the species classification information of the microbial flora, the cluster analysis was performed to generate OTUs. FIGS. 5E-5F show the cluster diagram of the annotations at order level. […] There were significant differences in the relative abundance of Clostridiales, Bacteroides, Monadales, Desulfovibrionales and the like. The abundance of the microbial flora (e.g. Prevotella spp. and Succiniclasticum spp.) producing propionate and butyrate decreased, while the abundance of the microbial flora (e.g., Bifidobacterium) producing acetate increased. […] Each circle represents a species at the specific taxonomic level, and the size of the circle is positively correlated with the relative abundance of the species. The species with no significant differences are uniformly colored yellow, and the biomarkers for the species with differences are indicated with the color of the corresponding group.
# [3] = system: lactating cows; experiment: Methane content in respiratory gases of cows fed with melatonin; type: in vivo; settings: fed 15 mg/kg/day
# Protocol: as §1, with “production. Lactating cows were fed with melatonin powder of 15 mg/kg/day for 21 days. The respiratory gases were collected from each group at days 0, 7, 14 and 21 by using a respiratory gas collection system. The methane contents in the gases were detected by gas chromatography. […] In addition, this effect can be maintained for a longer period of time.” for “production.”
# [4] = system: rumen fluids of cows (in vitro rumen fermentation system); experiment: In vitro fermentation of rumen fluids of cows, methane content by gas chromatography; type: cell-based; settings: for methane production of the in vitro rumen fermentation system: FIG. 1
# Source text: Rumen fluids were collected from fistulated cows before morning feeding, filtered through 4 layers of gauze, and then brought back to the laboratory by placing in a thermos flask. The experiment comprised a control group (CON) and melatonin groups (MT: 10^−3 mol/L, 10^−5 mol/L, 10^−7 mol/L). The cattle farm Total Mixed Rations (TMR) was used as the fermentation substrate, and artificial saliva was used as the matrix. Oxygen in the fermentation flasks was replaced with nitrogen. Then, the rumen fluids were incubated anaerobically at 39° C. in an incubator, which was connected to a gas bag to collect the fermentation gas. The methane content in the gas bag was detected by gas chromatography. In vitro experiment: melatonin was added during the in vitro simulation of rumen fermentation. The in vitro rumen fermentation system of 75 mL in each bottle comprises 0.5 g TMR powder, 50 mL of artificial saliva and 25 mL of filtered rumen fluid. The 10^−3 mol/L, 10^−5 mol/L and 10^−7 mol/L melatonin groups (melatonin dissolved in a small amount of DMSO and diluted to these concentrations with saline) and a control group (only solvent, i.e., a small amount of DMSO+saline) were set up separately. For each group, the samples were collected at the fermentation times 2 h, 4 h, 8 h, 24 h and 48 h. Three replicates were set for each sample. After fermenting anaerobically at 39° C., the gas bags and fermentation liquid were collected. Gas chromatography was used to detect the methane content in the gas of the gas bags. The obtained data were analyzed by one-way analysis of variance (One Way ANOVA) by means of SPSS® (Statistical Product and Service Solutions) statistical software. p<0.05 indicated significant difference and p<0.01 indicated extremely significant difference. The DunCan test was used for multiple comparisons. The results were expressed as means±SEM. Addition form I: adding melatonin powder (MT p) directly to the fermentation system to a final concentration of 2×10−3 mol/L. Addition form II: adding concentrated melatonin solution (MT s) of 10^−3 mol/L at 0 h and 24 h respectively.
# [5] = system: archaea / methanogenic genera of the rumen microbial flora; experiment: Metagenome sequencing of in vitro fermentation rumen fluids (archaea); type: cell-based, cows; settings: melatonin treatment vs control, FIG. 7B
# Protocol: Metagenome sequencing was performed in order to further study the changes in the rumen microbial flora. In addition to the analysis of the gene table, the metagenome sequencing can also analyze the microbial compositions of the samples. Thus, it can obtain more information on the species, including phages, viruses, fungi, archaea and the like, other than bacteria. […] Due to the discovery of the methane-reducing effect of melatonin, we focused on the changes of archaea. 72 species archaea species, which had different abundance between the control and melatonin groups, were screened. […] Thus, melatonin can reduce the methane production by reducing the abundance of most methanogenic microbial flora.
# [6] = system: rumen fluids (in vitro rumen fluid fermentation); experiment: Volatile fatty acids (VFAs) from the in vitro rumen fluid fermentation, gas chromatography; type: cell-based, cows; settings: 10^−3 mol/L melatonin, 48 h
# Protocol: Rumen microorganisms can degrade plant fibers and produce VFAs, which in turn provide energy substances to the hosts. Thus, we analyzed the production of VFAs from the in vitro fermentation system. Based on the above experiments, we determined to in vitro treat the rumen fluids with 10^−3 mol/L of melatonin solution for 48 h. The levels of six VFAs (i.e., acetate (A), propionate (P), butyrate (B), isobutyrate, valerate and isovalerate), were detected in the in vitro rumen fluid fermentation solution by gas chromatography. […] In the rumens of ruminant animals, CO2 and H2 are mainly produced during the conversion of pyruvate into acetate and butyrate in glycolysis, and glucose can be generated from propionate. The A/P ratios of the two groups were compared, 3.00 for the control group and 3.372 for the melatonin group.
compound,measurement,setting,value
COc1ccc2[nH]cc(CCNC(C)=O)c2c1 [melatonin],melatonin concentrations in the rumen fluids,[1],significantly increased
same,"abundance of the microbial flora producing acetate (e.g., Bifidobacterium)",[2]; FIGS. 6A-6B,increased
same,abundance of the microbial flora producing propionate and butyrate (e.g. Prevotella spp. and Succiniclasticum spp.),[2]; FIGS. 6A-6B,decreased
same,diversity of rumen microbial flora (Alpha diversity),"[2]; melatonin added to the fermentation system, FIGS. 5A-5D",increased
same,"compositions of the microbial flora (relative abundance of orders Clostridiales, Bacteroides, Monadales, Desulfovibrionales)","[2]; melatonin treatment, FIGS. 5E-5F",significant changes
same,methane production from the respiration of the cows,"[3]; day 14, FIG. 3",decreased significantly
same,methane production from the respiration of the cows,"[3]; day 21, FIG. 3",decreased to a similar extent as at day 14
same,methane production from the respiration of the cows,"[3]; from day 7, FIG. 3",decreased
same,methane production of the in vitro fermentation,"[4]; 10^−3 mol/L, 48 h, vs control",significantly reduced
same,methane production of the rumen fermentation liquid,"[4]; 10^−3 to 10^−7 mol/L, 4 h to 8 h",reduced
same,reduction of methane production as compared with the control group,"[4]; 4 h, all concentrations of melatonin groups (10^−3 to 10^−7 mol/L)",about 15%
same,methane content (%),"[4]; MT 10^−3 mol/L, fermentation time 2 h",0.99 ± 0.05%
same,methane content (%),"[4]; MT 10^−3 mol/L, fermentation time 4 h",3.42 ± 0.13%
same,methane content (%),"[4]; MT 10^−3 mol/L, fermentation time 8 h",4.43 ± 0.39%
same,methane content (%),"[4]; MT 10^−3 mol/L, fermentation time 24 h",9.68 ± 0.07%
same,methane content (%),"[4]; MT 10^−3 mol/L, fermentation time 48 h",10.79 ± 0.53^b %
same,methane content (%),"[4]; MT 10^−5 mol/L, fermentation time 2 h",1.09 ± 0.06%
same,methane content (%),"[4]; MT 10^−5 mol/L, fermentation time 4 h",3.47 ± 0.07%
same,methane content (%),"[4]; MT 10^−5 mol/L, fermentation time 8 h",4.47 ± 0.39%
same,methane content (%),"[4]; MT 10^−5 mol/L, fermentation time 24 h",10.4 ± 0.24%
same,methane content (%),"[4]; MT 10^−5 mol/L, fermentation time 48 h",12.65 ± 0.45^a %
same,methane content (%),"[4]; MT 10^−7 mol/L, fermentation time 2 h",1.03 ± 0.07%
same,methane content (%),"[4]; MT 10^−7 mol/L, fermentation time 4 h",3.45 ± 0.05%
same,methane content (%),"[4]; MT 10^−7 mol/L, fermentation time 8 h",5.16 ± 0.14%
same,methane content (%),"[4]; MT 10^−7 mol/L, fermentation time 24 h",10.6 ± 0.44%
same,methane content (%),"[4]; MT 10^−7 mol/L, fermentation time 48 h",11.25 ± 0.67^a %
same,methane production of the in vitro rumen fermentation system,"[4]; addition form I: melatonin powder (MT p), final concentration 2×10−3 mol/L, 48 h",significantly reduced
same,methane production of the in vitro rumen fermentation system,"[4]; addition form II: concentrated melatonin solution (MT s) of 10^−3 mol/L at 0 h and 24 h, 48 h",significantly reduced
same,"abundance of most methanogenic genera (Halobacterium, Methanoplanus, Methanococcoides, Methanoculleus, Methanothrix spp.)",[5],reduced
same,level of acetic acid in rumen fluids,[6]; FIG. 4,significantly reduced
same,level of propionic acid in rumen fluids,[6]; FIG. 4,significantly reduced
same,A/P ratio (acetate/propionate),[6]; control group 3.00,3.372
